Experimental data taken from PMC6646405, “A quantitative, high-throughput method identifies protein–glycan interactions via mass spectrometry” (Communications Biology, 2019).
“And” between values parts separate entries of the source, which are not always exact repeats. Equal values may be shown once.

Assays:
[1] = target: Sambucus nigra lectin (SNA) (Sambucus nigra, UniProt Q41358); type: binding
[2] = target: T1, human neuraminidase 2 (NEU2) (Homo sapiens, UniProt Q9Y3R4); experiment: Time-resolved CUPRA enzyme kinetics, NEU2; type: biochemical; settings: for fraction of OSmod substrate remaining (Fig2d time course): 200 mM aqueous ammonium acetate, pH 7, 25 °C
T1 construct: made in house
Procedure: To apply CUPRA in this capacity, two or more substrates of interest are introduced, as their corresponding OS^mod, to a solution containing the desired CAZyme. Changes in substrate concentrations, as well as those of the corresponding enzyme products, are determined from the relative abundances of OS^mod-bound ^UniPproxy measured by time-resolved ESI-MS. Because of the manner in which the substrate and product concentrations are measured, the assay is insensitive to differences in their ESI-MS response factors and, consequently, independent of the nature of the chemical modification catalyzed by the enzyme. As a result, time-resolved CUPRA eliminates the need for calibration curves or internal standards, which are generally required with ESI-MS-based enzyme kinetics assays.
Two glycosyl hydrolases, human neuraminidase 2 (NEU2) and 3 (NEU3), which preferentially cleave α2-3-linked Neu5Ac residues, were used to illustrate the ease with which time-resolved CUPRA can establish substrate specificities. We incubated libraries of the Neu5Ac-containing OS^mod with NEU2 (Fig. 2d) or NEU3 (Fig. 2e) and monitored their conversion to the corresponding desialylated OS^mod products at pH 7 and 25 °C. […] All OS^mod containing terminal α2-3-linked Neu5Ac were substrates of NEU3, with initial rates that are 10–50% that of HMO03. […] Substrates containing branching after the α2-3-linkage were poor substrates for both enzymes. […] We note, however, that previous reports have examined NEU2 and NEU3 activity under more acidic solution conditions. Furthermore, the nature of the substrate aglycone may influence the activity of human neuraminidases.
The time-resolved CUPRA measurements were performed by manually mixing aliquots of stock solutions of NEU2 or NEU3 (final concentration 2 µM), ^UniPproxy (5 µM), substrates (Si, 5 µM each) and CUPRA linker (5 µM), all in 200 mM aqueous ammonium acetate at pH 7 and 25 °C. ESI mass spectra were collected continuously at the rate of 30 scans min^−1 starting at 3 min after mixing. The adduct distributions measured for the ^UniPproxy – CUPRA linker complex ions were used to apply SWARM. The time-dependent fractional abundance of a given substrate (FS,i) (Eq. 12), which was used to represent reaction progress, was calculated from the total Ab of ^UniPproxy bound to Si and corresponding product (Pi), corrected for Si consumed prior to data acquisition.12 FS,i=Ab^UniPproxySi/Ab^UniPproxySi+Ab^UniPproxyPi

Chain of Sambucus nigra lectin (SNA) (Q41358 309-570 limits assumed): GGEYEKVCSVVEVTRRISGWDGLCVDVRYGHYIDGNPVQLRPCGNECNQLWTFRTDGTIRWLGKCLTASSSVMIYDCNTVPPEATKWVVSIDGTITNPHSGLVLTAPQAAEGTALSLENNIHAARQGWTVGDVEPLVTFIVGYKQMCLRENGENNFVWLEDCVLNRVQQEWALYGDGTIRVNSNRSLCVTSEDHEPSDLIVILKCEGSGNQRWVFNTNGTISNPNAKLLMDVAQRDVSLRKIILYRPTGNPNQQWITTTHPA
Chain of Sambucus nigra lectin (SNA) (Q41358 29-289 partner limits assumed): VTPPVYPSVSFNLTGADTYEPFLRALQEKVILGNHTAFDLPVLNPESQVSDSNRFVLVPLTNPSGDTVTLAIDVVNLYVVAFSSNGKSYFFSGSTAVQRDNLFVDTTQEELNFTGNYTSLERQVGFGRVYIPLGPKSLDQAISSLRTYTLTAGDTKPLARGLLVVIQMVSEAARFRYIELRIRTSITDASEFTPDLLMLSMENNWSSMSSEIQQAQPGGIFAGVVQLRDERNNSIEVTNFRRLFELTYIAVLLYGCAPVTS
T1 sequence (Q9Y3R4 whole entry): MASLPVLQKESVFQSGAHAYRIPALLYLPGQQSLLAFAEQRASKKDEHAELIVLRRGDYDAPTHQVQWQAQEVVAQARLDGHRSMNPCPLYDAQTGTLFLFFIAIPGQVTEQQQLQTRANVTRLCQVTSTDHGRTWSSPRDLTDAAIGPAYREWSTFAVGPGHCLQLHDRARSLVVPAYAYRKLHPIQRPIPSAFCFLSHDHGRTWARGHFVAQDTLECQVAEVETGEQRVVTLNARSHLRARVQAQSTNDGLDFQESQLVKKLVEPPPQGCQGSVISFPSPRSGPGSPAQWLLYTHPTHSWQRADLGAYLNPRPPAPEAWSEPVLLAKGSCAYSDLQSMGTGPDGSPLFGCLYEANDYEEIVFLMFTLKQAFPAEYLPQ

SMILES: CC(=O)N[C@H]1[C@H](O[C@@H]2[C@H](O[C@]3(C(=O)O)C[C@H](O)[C@@H](NC(C)=O)[C@H]([C@H](O)[C@@H](CO)O[C@]4(C(=O)O)C[C@H](O)[C@@H](NC(C)=O)[C@H]([C@H](O)[C@H](O)CO)O4)O3)[C@@H](O)[C@H](O[C@H]3[C@H](O)[C@@H](O)[C@H](N(CCOCCOCCNC(=O)[C@H](Cc4ccccc4)NC(=O)[C@H](Cc4ccccc4)NC(=O)CCCC(=O)NCCc4ccc(S(N)(=O)=O)cc4)C(C)=O)O[C@@H]3CO)O[C@@H]2CO)O[C@H](CO)[C@H](O)[C@@H]1O [GA10, GalNAcβ1-4(Neu5Acα2-8 Neu5Acα2-3)Galβ1-4Glc-CL]
- DIi(5uM SNA) [1]: 1 and 0.9993 and 0.9948 and 0.9939
- average DI [1]: 0.9971
- relative abundance of OSmod substrate (Fig2d time course) ([2]; time 0 min): 0.903
- relative abundance of OSmod substrate (Fig2d time course) ([2]; time 1 min): 0.9038
- relative abundance of OSmod substrate (Fig2d time course) ([2]; time 2 min): 0.8996
- relative abundance of OSmod substrate (Fig2d time course) ([2]; time 3 min): 0.8888
- relative abundance of OSmod substrate (Fig2d time course) ([2]; time 4 min): 0.9044
- relative abundance of OSmod substrate (Fig2d time course) ([2]; time 7 min): 0.9102
- relative abundance of OSmod substrate (Fig2d time course) ([2]; time 8 min): 0.9068
- relative abundance of OSmod substrate (Fig2d time course) ([2]; time 9 min): 0.9088
- relative abundance of OSmod substrate (Fig2d time course) ([2]; time 10 min): 0.9065
- relative abundance of OSmod substrate (Fig2d time course) ([2]; time 11 min): 0.9097
- relative abundance of OSmod substrate (Fig2d time course) ([2]; time 12 min): 0.9035
- relative abundance of OSmod substrate (Fig2d time course) ([2]; time 13 min): 0.9029
- relative abundance of OSmod substrate (Fig2d time course) ([2]; time 14 min): 0.9064
- relative abundance of OSmod substrate (Fig2d time course) ([2]; time 15 min): 0.8954
- relative abundance of OSmod substrate (Fig2d time course) ([2]; time 16 min): 0.9063
- relative abundance of OSmod substrate (Fig2d time course) ([2]; time 17 min): 0.9123
- relative abundance of OSmod substrate (Fig2d time course) ([2]; time 18 min): 0.9135
- relative abundance of OSmod substrate (Fig2d time course) ([2]; time 19 min): 0.9061
- relative abundance of OSmod substrate (Fig2d time course) ([2]; time 20 min): 0.9106
- relative abundance of OSmod substrate (Fig2d time course) ([2]; time 21 min): 0.9179
- relative abundance of OSmod substrate (Fig2d time course) ([2]; time 22 min): 0.9134
- relative abundance of OSmod substrate (Fig2d time course) ([2]; time 23 min): 0.9095
- relative abundance of OSmod substrate (Fig2d time course) ([2]; time 24 min): 0.9035
- relative abundance of OSmod substrate (Fig2d time course) ([2]; time 25 min): 0.9132
- relative abundance of OSmod substrate (Fig2d time course) ([2]; time 26 min): 0.907
- relative abundance of OSmod substrate (Fig2d time course) ([2]; time 27 min): 0.9132
- relative abundance of OSmod substrate (Fig2d time course) ([2]; time 28 min): 0.9116
- relative abundance of OSmod substrate (Fig2d time course) ([2]; time 29 min): 0.9094
- relative abundance of OSmod substrate (Fig2d time course) ([2]; time 30 min): 0.9084
- relative abundance of OSmod substrate (Fig2d time course) ([2]; time 31 min): 0.9073
- relative abundance of OSmod substrate (Fig2d time course) ([2]; time 32 min): 0.915
- relative abundance of OSmod substrate (Fig2d time course) ([2]; time 33 min): 0.9164
- relative abundance of OSmod substrate (Fig2d time course) ([2]; time 34 min): 0.9136
- relative abundance of OSmod substrate (Fig2d time course) ([2]; time 35 min): 0.9113
- relative abundance of OSmod substrate (Fig2d time course) ([2]; time 36 min): 0.9057
- relative abundance of OSmod substrate (Fig2d time course) ([2]; time 37 min): 0.9031
- relative abundance of OSmod substrate (Fig2d time course) ([2]; time 38 min): 0.9043
- relative abundance of OSmod substrate (Fig2d time course) ([2]; time 39 min): 0.895
- relative abundance of OSmod substrate (Fig2d time course) ([2]; time 40 min): 0.8976
- relative abundance of OSmod substrate (Fig2d time course) ([2]; time 41 min): 0.8827
- relative abundance of OSmod substrate (Fig2d time course) ([2]; time 42 min): 0.9129
- relative abundance of OSmod substrate (Fig2d time course) ([2]; time 43 min): 0.905
- relative abundance of OSmod substrate (Fig2d time course) ([2]; time 44 min): 0.9072
- relative abundance of OSmod substrate (Fig2d time course) ([2]; time 45 min): 0.9125
- relative abundance of OSmod substrate (Fig2d time course) ([2]; time 46 min): 0.9034
- relative abundance of OSmod substrate (Fig2d time course) ([2]; time 47 min): 0.9131
- relative abundance of OSmod substrate (Fig2d time course) ([2]; time 48 min): 0.9147
- relative abundance of OSmod substrate (Fig2d time course) ([2]; time 49 min): 0.9115
- relative abundance of OSmod substrate (Fig2d time course) ([2]; time 50 min): 0.9161
- relative abundance of OSmod substrate (Fig2d time course) ([2]; time 51 min): 0.9162
- relative abundance of OSmod substrate (Fig2d time course) ([2]; time 52 min): 0.9166
- relative abundance of OSmod substrate (Fig2d time course) ([2]; time 53 min): 0.9066
- relative abundance of OSmod substrate (Fig2d time course) ([2]; time 54 min): 0.9094
- relative abundance of OSmod substrate (Fig2d time course) ([2]; time 55 min): 0.9043
- relative abundance of OSmod substrate (Fig2d time course) ([2]; time 56 min): 0.9097
- relative abundance of OSmod substrate (Fig2d time course) ([2]; time 57 min): 0.9071
- relative abundance of OSmod substrate (Fig2d time course) ([2]; time 58 min): 0.9137
- relative abundance of OSmod substrate (Fig2d time course) ([2]; time 59 min): 0.9089
- relative abundance of OSmod substrate (Fig2d time course) ([2]; time 60 min): 0.9084
- relative abundance of OSmod substrate (Fig2d time course) ([2]; time 61 min): 0.9152
- relative abundance of OSmod substrate (Fig2d time course) ([2]; time 62 min): 0.9099
- relative abundance of OSmod substrate (Fig2d time course) ([2]; time 63 min): 0.9041
- relative abundance of OSmod substrate (Fig2d time course) ([2]; time 64 min): 0.9
- relative abundance of OSmod substrate (Fig2d time course) ([2]; time 65 min): 0.9101
- relative abundance of OSmod substrate (Fig2d time course) ([2]; time 66 min): 0.9104
- relative abundance of OSmod substrate (Fig2d time course) ([2]; time 67 min): 0.9077
- relative abundance of OSmod substrate (Fig2d time course) ([2]; time 68 min): 0.9072
- relative abundance of OSmod substrate (Fig2d time course) ([2]; time 69 min): 0.9129
- relative abundance of OSmod substrate (Fig2d time course) ([2]; time 70 min): 0.9057
- relative abundance of OSmod substrate (Fig2d time course) ([2]; time 71 min): 0.9057
- relative abundance of OSmod substrate (Fig2d time course) ([2]; time 72 min): 0.9132
- relative abundance of OSmod substrate (Fig2d time course) ([2]; time 73 min): 0.9108
- relative abundance of OSmod substrate (Fig2d time course) ([2]; time 74 min): 0.9071
- relative abundance of OSmod substrate (Fig2d time course) ([2]; time 75 min): 0.9161
- relative abundance of OSmod substrate (Fig2d time course) ([2]; time 76 min): 0.9095
- relative abundance of OSmod substrate (Fig2d time course) ([2]; time 77 min): 0.9151
- relative abundance of OSmod substrate (Fig2d time course) ([2]; time 78 min): 0.9122
- relative abundance of OSmod substrate (Fig2d time course) ([2]; time 79 min): 0.9076
- relative abundance of OSmod substrate (Fig2d time course) ([2]; time 80 min): 0.9134
- relative abundance of OSmod substrate (Fig2d time course) ([2]; time 81 min): 0.9135
- relative abundance of OSmod substrate (Fig2d time course) ([2]; time 82 min): 0.9162
- relative abundance of OSmod substrate (Fig2d time course) ([2]; time 83 min): 0.9125
- relative abundance of OSmod substrate (Fig2d time course) ([2]; time 84 min): 0.9098
- relative abundance of OSmod substrate (Fig2d time course) ([2]; time 97 min): 0.9111
- relative abundance of OSmod substrate (Fig2d time course) ([2]; time 98 min): 0.9062
- relative abundance of OSmod substrate (Fig2d time course) ([2]; time 99 min): 0.9109
- relative abundance of OSmod substrate (Fig2d time course) ([2]; time 100 min): 0.915
- relative abundance of OSmod substrate (Fig2d time course) ([2]; time 101 min): 0.9087
- relative abundance of OSmod substrate (Fig2d time course) ([2]; time 102 min): 0.916
- relative abundance of OSmod substrate (Fig2d time course) ([2]; time 103 min): 0.9129
- relative abundance of OSmod substrate (Fig2d time course) ([2]; time 104 min): 0.9139
- relative abundance of OSmod substrate (Fig2d time course) ([2]; time 105 min): 0.9109
- relative abundance of OSmod substrate (Fig2d time course) ([2]; time 106 min): 0.908
- relative abundance of OSmod substrate (Fig2d time course) ([2]; time 107 min): 0.9138
- relative abundance of OSmod substrate (Fig2d time course) ([2]; time 108 min): 0.911
- relative abundance of OSmod substrate (Fig2d time course) ([2]; time 109 min): 0.9085
- relative abundance of OSmod substrate (Fig2d time course) ([2]; time 110 min): 0.8819
- relative abundance of OSmod substrate (Fig2d time course) ([2]; time 111 min): 0.9092
- relative abundance of OSmod substrate (Fig2d time course) ([2]; time 112 min): 0.9111
- relative abundance of OSmod substrate (Fig2d time course) ([2]; time 113 min): 0.9127
- fraction of OSmod substrate remaining (Fig2d time course) ([2]; time 114 min, time-resolved CUPRA): 0.9126
- fraction of OSmod substrate remaining (Fig2d time course) ([2]; time 115 min, time-resolved CUPRA): 0.9042
- fraction of OSmod substrate remaining (Fig2d time course) ([2]; time 116 min, time-resolved CUPRA): 0.909
- fraction of OSmod substrate remaining (Fig2d time course) ([2]; time 117 min, time-resolved CUPRA): 0.9097
- fraction of OSmod substrate remaining (Fig2d time course) ([2]; time 118 min, time-resolved CUPRA): 0.9085
- fraction of OSmod substrate remaining (Fig2d time course) ([2]; time 119 min, time-resolved CUPRA): 0.9043
- fraction of OSmod substrate remaining (Fig2d time course) ([2]; time 120 min, time-resolved CUPRA): 0.904
- fraction of OSmod substrate remaining (Fig2d time course) ([2]; time 121 min, time-resolved CUPRA): 0.904
- fraction of OSmod substrate remaining (Fig2d time course) ([2]; time 122 min, time-resolved CUPRA): 0.904
- fraction of OSmod substrate remaining (Fig2d time course) ([2]; time 123 min, time-resolved CUPRA): 0.904
- fraction of OSmod substrate remaining (Fig2d time course) ([2]; time 124 min, time-resolved CUPRA): 0.904
- Relative activity NEU2 ([2]; time-resolved CUPRA, 200 mM aqueous ammonium acetate pH 7, 25 °C, relative to HMO03): 0.000
